Structures can show the parent of a compound that is named as a salt.
Legend:
Assay type in all cases: in vivo
rice cv. Cheniere [1] = experiment: Pouch assay with PESA salt seed treatment; root length; details: for Root Length: untreated 9.8
Experimental: Procedure for Treating Samples of Seed in the Laboratory
(§1) Seed was sieved with a screen of mesh size appropriate to remove broken seeds and small trash. Cracked or otherwise damaged seeds were removed. The seed was well mixed, and 50 g samples were weighed into small plastic trays. Seed treatment slurries were made by adding measured amounts of PESA or its salts and other AIs to sufficient water to bring them up to a standard volume, typically 2 ml. A fungicide (Maxim XL; Syngenta Agricultural Products, Greensboro, N.C.), a polymeric binder (CF-Clear; Becker-Underwood, Ames, Iowa), and a colorant (Color Coat Red; Becker-Underwood, Ames, Iowa) were also included in the slurry at label rates. A small aliquot of this slurry was applied to the seed using the Hege 11 coater (Wintersteiger, Salt Lake City, Utah) with a six-inch bowl at a slurry rate of 30 ounces per 100 lbs of seed. The slurry was deposited drop-wise on the spinning disk atomizer using a syringe.
After treatment, each seed sample was placed in plastic trays and dried at a room temperature for 20 to 60 minutes. The samples were then placed in small plastic bags. Samples were spot-checked using a water activity meter to make sure the water activity is below 0.7.
(§2) Seeds were placed in germination pouches consisting of germination paper hydrated with sterile water that was an insert in a gas-permeable 16×14 cm plastic pouch (CYG Pouch; Mega International, St. Paul, Minn.). In these examples, in pouch solution evaluation, PESA sodium salt or other active ingredients were added to the sterile water in the pouch. The pouches were arranged in a completely randomized block design in growth racks and placed in 19-liter polycarbonate food storage containers (Rubbermaid Commercial Products, Winchester, Va.). The sealed containers were held in an upright growth cabinet maintained at 25 C with a 12 hour light: 12 hour dark photoperiod. After 6 days, the containers were removed from the growth cabinet, and the lengths of the roots and shoot were measured.
Rice cv. Chemere was treated with PESA sodium salt prior to growing in the pouch. The treated seeds were then grown in the pouch in a dose-dependent series of trifluralin concentrations (Table 2). […] This confirms that seed treatment with the PESA salt protects or safens rice from the negative effects of trifluralin herbicide on root growth.

rice cv. Cheniere [2] = experiment: Emergence of seed-treated rice seeded onto soil previously treated with herbicide; details: for Percent Emergence at 9 days after planting: untreated 90
From the text: as §1, with “Seed treatment slurries were made by adding measured amounts of PESA or its salts and other AIs to sufficient water to bring them up to a standard volume, typically 2 ml.” left out
Rice cv. […] It was then seeded onto soil which was previously sprayed with the pendimethalin herbicide Prowl H2O® (BASF Agricultural Products, Research Triangle Park, N.C.).
After seed treatment, rice was seeded into soil previously treated with the dithiopyr herbicide Dimension®.
Rice seed treated with PESA was tested for its ability to protect rice from the herbicide Roundup WeatherMax® (glyphosate). After seed treatment, rice was seeded into soil previously treated with the Roundup WeatherMax®.

rice cv. Nipponbare = experiment: Hydroponic assay; total root length and shoot length; details: for Shoot Length / Total Root Length: 40 ppm PESA salt
Experimental: Where hydroponically-grown rice was used in studies, the seeds were pre-incubated in water at 30 C for 2 days to stimulate germination. Three seeds were placed on a float and cultivated hydroponically in a test tube (25 mm×200 mm), which contained 50 ml of Kimura B nutrient solution at ⅛th strength supplemented with herbicides and PESA sodium salt. The exposure of the roots to the light was prevented by wrapping the tubes with aluminum foil. The rice seedlings were incubated in a growth cabinet at 25 C under continuous light for 14 days, and the total root length and shoot length were measured. Total root length (cm) was the root length/plant determined following scanning with WinRhizo software (Regent Instruments INC, Toronto, Canada).

cotton = experiment: Pouch assay; root and shoot length of cotton; details: for Shoot Length / Root Length: 30 ppm PESA salt; for Shoot Length: untreated 4.7; for Root Length: untreated 7.7
Experimental: as §2

[3] = 40 ppm PESA salt with 0.1 ppm dicamba
[4] = 40 ppm PESA salt with 0.1 ppm imazosulfuron
[5] = 40 ppm PESA salt with 1 ppm flumioxazin

O=C(O)CCC(=O)NCCc1ccccc1 [PESA salt, N-(2-phenylethyl)succinamic acid]
protection of root growth by seed treatment (rice cv. Cheniere [1]; PESA salt seed treatment, trifluralin 50 ppm): significant protection against intermediate rates of trifluralin (50 ppm)
Root Length (rice cv. Cheniere [1]; seed treatment 10 g PESA salt/100 lbs of seed, 0 ppm trifluralin): 10.7 cm
Root Length (rice cv. Cheniere [1]; seed treatment 10 g PESA salt/100 lbs of seed, 50 ppm trifluralin): 4.6 cm
Root Length (rice cv. Cheniere [1]; seed treatment 10 g PESA salt/100 lbs of seed, 100 ppm trifluralin): 0.3 cm
Root Length (rice cv. Cheniere [1]; seed treatment 25 g PESA salt/100 lbs of seed, 0 ppm trifluralin): 10.1 cm
Root Length (rice cv. Cheniere [1]; seed treatment 25 g PESA salt/100 lbs of seed, 50 ppm trifluralin): 5.2 cm
Root Length (rice cv. Cheniere [1]; seed treatment 25 g PESA salt/100 lbs of seed, 100 ppm trifluralin): 0.3 cm
Root Length (rice cv. Cheniere [1]; seed treatment 50 g PESA salt/100 lbs of seed, 0 ppm trifluralin): 10.3 cm
Root Length (rice cv. Cheniere [1]; seed treatment 50 g PESA salt/100 lbs of seed, 50 ppm trifluralin): 6.0 cm
Root Length (rice cv. Cheniere [1]; seed treatment 50 g PESA salt/100 lbs of seed, 100 ppm trifluralin): 0.3 cm
Percent Emergence at 12 days after planting (rice cv. Cheniere [2]; Dimension (dithiopyr) 0.25 pints/acre, seed treatment none (Control), 1 g GA3 and/or 50 g PESA salt per 100 lbs of seed, untreated 72.1): 61.0%
Percent Emergence at 12 days after planting (rice cv. Cheniere [2]; Dimension (dithiopyr) 0.5 pints/acre, seed treatment none (Control), 1 g GA3 and/or 50 g PESA salt per 100 lbs of seed, untreated 72.1): 13.9%
protection of emergence from glyphosate (rice cv. Cheniere [2]; PESA seed treatment, soil treated with Roundup WeatherMax, at 90 μg/cm^2): could protect the rice seedlings from glyphosate
Percent Emergence at 12 days after planting (rice cv. Cheniere [2]; Prowl (pendimethalin) 0.25 pints/acre, seed treatment none (Control), 1 g GA3 and/or 50 g PESA salt per 100 lbs of seed, untreated 84.5): 79.0%
Percent Emergence at 12 days after planting (rice cv. Cheniere [2]; Prowl (pendimethalin) 0.5 pints/acre, seed treatment none (Control), 1 g GA3 and/or 50 g PESA salt per 100 lbs of seed, untreated 84.5): 80.7%
Percent Emergence at 12 days after planting (rice cv. Cheniere [2]; Prowl (pendimethalin) 2 pints/acre, seed treatment none (Control), 1 g GA3 and/or 50 g PESA salt per 100 lbs of seed, untreated 84.5): 61.0%
Percent Emergence at 12 days after planting (rice cv. Cheniere [2]; no Dimension (Control), seed treatment 1 g GA3 and/or 50 g PESA salt per 100 lbs of seed, untreated 72.1): 77.2%
Percent Emergence at 12 days after planting (rice cv. Cheniere [2]; no Prowl (Control), seed treatment 1 g GA3 and/or 50 g PESA salt per 100 lbs of seed, untreated 84.5): 86.1%
Percent Emergence at 9 days after planting (rice cv. Cheniere [2]; seed treatment 25 g PESA salt per 100 kg of seed, glyphosate 0 μg/cm2): 80%
Percent Emergence at 9 days after planting (rice cv. Cheniere [2]; seed treatment 25 g PESA salt per 100 kg of seed, glyphosate 23 μg/cm2): 84%
Percent Emergence at 9 days after planting (rice cv. Cheniere [2]; seed treatment 25 g PESA salt per 100 kg of seed, glyphosate 90 μg/cm2): 28%
Percent Emergence at 9 days after planting (rice cv. Cheniere [2]; seed treatment 50 g PESA salt per 100 kg of seed, glyphosate 0 μg/cm2): 92%
Percent Emergence at 9 days after planting (rice cv. Cheniere [2]; seed treatment 50 g PESA salt per 100 kg of seed, glyphosate 23 μg/cm2): 78%
Percent Emergence at 9 days after planting (rice cv. Cheniere [2]; seed treatment 50 g PESA salt per 100 kg of seed, glyphosate 90 μg/cm2): 38%
protection of emergence from pendimethalin (rice cv. Cheniere [2]; seed treatment, soil sprayed with Prowl H2O, particularly at 2 pints/acre): could protect the rice seedlings from pendimethalin
protection of emergence from dithiopyr (rice cv. Cheniere [2]; seed treatment, soil treated with Dimension, particularly at 0.25 and 0.5 pints/acre): could protect the rice seedlings from dithiopyr
protection of roots from herbicide (rice cv. Nipponbare; [3]): largely protected the roots from the negative effects of dicamba
protection of shoots from herbicide (rice cv. Nipponbare; [3]): largely protected the shoots from the negative effects of dicamba
total root length increased by, as compared with untreated control (rice cv. Nipponbare; [3]): 61%
protection of roots from herbicide (rice cv. Nipponbare; [4]): largely protected the roots from the negative effects of imazosulfuron
total root length increased by, as compared with untreated control (rice cv. Nipponbare; [4]): 87%
protection of roots from herbicide (rice cv. Nipponbare; [5]): protected the roots from the negative effects of flumioxazin
protection of shoots from herbicide (rice cv. Nipponbare; [5]): largely protected the shoots from the negative effects of flumioxazin
protection of shoots from herbicide (rice cv. Nipponbare; 40 ppm PESA salt with 1 ppm imazosulfuron): largely protected the shoots from the negative effects of the herbicide
protection of roots from herbicide (rice cv. Nipponbare; 40 ppm PESA salt with 3 ppm clodinafop-propargyl): protected the roots from the negative effects of the herbicide
Shoot Length (rice cv. Nipponbare; 0 ppm clodinafop-propargyl, untreated 10.6): 13.3 cm
Total Root Length (rice cv. Nipponbare; 0 ppm clodinafop-propargyl, untreated 52.1): 193.9 cm
Shoot Length (rice cv. Nipponbare; 0 ppm dicamba, untreated 11.4): 15.1 cm
Total Root Length (rice cv. Nipponbare; 0 ppm dicamba, untreated 44.9): 121.9 cm
Shoot Length (rice cv. Nipponbare; 0 ppm flumioxazin, untreated 10.6): 13.3 cm
Total Root Length (rice cv. Nipponbare; 0 ppm flumioxazin, untreated 52.1): 193.9 cm
Shoot Length (rice cv. Nipponbare; 0 ppm imazosulfuron, untreated 11.4): 15.1 cm
Total Root Length (rice cv. Nipponbare; 0 ppm imazosulfuron, untreated 44.9): 121.9 cm
Shoot Length (rice cv. Nipponbare; 0.01 ppm dicamba, untreated 11.4): 15.1 cm
Total Root Length (rice cv. Nipponbare; 0.01 ppm dicamba, untreated 44.9): 155.4 cm
Shoot Length (rice cv. Nipponbare; 0.01 ppm imazosulfuron, untreated 11.4): 14.5 cm
Total Root Length (rice cv. Nipponbare; 0.01 ppm imazosulfuron, untreated 44.9): 169.8 cm
Shoot Length (rice cv. Nipponbare; 0.1 ppm dicamba, untreated 11.4): 12.5 cm
Total Root Length (rice cv. Nipponbare; 0.1 ppm dicamba, untreated 44.9): 72.5 cm
Shoot Length (rice cv. Nipponbare; 0.1 ppm flumioxazin, untreated 10.6): 12.3 cm
Total Root Length (rice cv. Nipponbare; 0.1 ppm flumioxazin, untreated 52.1): 132.6 cm
Shoot Length (rice cv. Nipponbare; 0.1 ppm imazosulfuron, untreated 11.4): 13.2 cm
Total Root Length (rice cv. Nipponbare; 0.1 ppm imazosulfuron, untreated 44.9): 83.8 cm
Shoot Length (rice cv. Nipponbare; 0.3 ppm clodinafop-propargyl, untreated 10.6): 14.3 cm
Total Root Length (rice cv. Nipponbare; 0.3 ppm clodinafop-propargyl, untreated 52.1): 202.6 cm
Shoot Length (rice cv. Nipponbare; 0.3 ppm flumioxazin, untreated 10.6): 10.3 cm
Total Root Length (rice cv. Nipponbare; 0.3 ppm flumioxazin, untreated 52.1): 102.8 cm
Shoot Length (rice cv. Nipponbare; 1 ppm clodinafop-propargyl, untreated 10.6): 13.6 cm
Total Root Length (rice cv. Nipponbare; 1 ppm clodinafop-propargyl, untreated 52.1): 110.5 cm
Shoot Length (rice cv. Nipponbare; 1 ppm dicamba, untreated 11.4): 3.6 cm
Total Root Length (rice cv. Nipponbare; 1 ppm dicamba, untreated 44.9): 9.2 cm
Shoot Length (rice cv. Nipponbare; 1 ppm flumioxazin, untreated 10.6): 7.5 cm
Total Root Length (rice cv. Nipponbare; 1 ppm flumioxazin, untreated 52.1): 53 cm
Shoot Length (rice cv. Nipponbare; 1 ppm imazosulfuron, untreated 11.4): 7.9 cm
Total Root Length (rice cv. Nipponbare; 1 ppm imazosulfuron, untreated 44.9): 13.8 cm
Shoot Length (rice cv. Nipponbare; 3 ppm clodinafop-propargyl, untreated 10.6): 11.8 cm
Total Root Length (rice cv. Nipponbare; 3 ppm clodinafop-propargyl, untreated 52.1): 44.3 cm
Shoot Length (rice cv. Nipponbare; 3 ppm flumioxazin, untreated 10.6): 6.5 cm
Total Root Length (rice cv. Nipponbare; 3 ppm flumioxazin, untreated 52.1): 24.4 cm
Shoot Length (cotton; 0 ppm chlorsulfuron): 5.2 cm
Root Length (cotton; 0 ppm chlorsulfuron): 14.0 cm
Shoot Length (cotton; 1 ppm chlorsulfuron): 2.7 cm
Root Length (cotton; 1 ppm chlorsulfuron): 2.1 cm
Shoot Length (cotton; 10 ppm chlorsulfuron): 1.7 cm
Root Length (cotton; 10 ppm chlorsulfuron): 2.0 cm
Shoot Length (cotton; 100 ppm chlorsulfuron): 1.7 cm
Root Length (cotton; 100 ppm chlorsulfuron): 2.0 cm
protection of root length from herbicide (cotton; PESA salt with chlorsulfuron): unable to overcome the negative effects of chlorsulfuron on root length
